Laboratory results taken from patent US20020151678A1, “Prophylaxis and therapy of acquired immunodeficiency syndrome” (Board of Regents, The University of Texas System., priority 1987, published 2002).
Entries after “also recorded” stand apart in the source; their conditions may differ.

Key:
BALB/c mice = assay: ELISA for anti-peptide antibody response in sera of immunized BALB/c mice; assay type: in vivo; settings: high molecular weight (multimer) forms
[1] = tested on: native HIV envelope protein gp160; settings: disulfide (di-Cys) polymeric form
Excerpt: FIG. 6 contains two panels of graphs that illustrate B6C3 F1 mouse PLN cell proliferation by ^3H-TdR incorporation as described before using varying concentrations of peptide multimer and gp120 as antigens. […] PPD and unrelated peptide were used as controls. A further discussion relating to FIGS. 6-8 is found hereinafter.
The cells were harvested onto filter strips and ^3H-TdR incorporation was monitored.
T cell proliferation measured by ^3H-TdR incorporation, was also similarly assayed as a function of the T cell antigen concentration, using various amounts of native gp120 or gp160 as one control, and PPD as another control. PLN from B6C3 F1 mice were used in these studies.

VYYGVPVWKEA [Peptide 104]
anti-peptide antibody response (in words) (BALB/c mice): very low to negligible amounts of anti-peptide antibodies; also recorded: do not stimulate anti-peptide antibody production | T cell response directed against the corresponding peptide and native HIV envelope protein gp160 [1]: strong T cell response

YLRDQQLLGIWGC [Peptide 61]
anti-peptide antibody response (in words) (BALB/c mice): very low to negligible amounts of anti-peptide antibodies; also recorded: do not stimulate anti-peptide antibody production | T cell response directed against the corresponding peptide and native HIV envelope protein gp160 [1]: strong T cell response

FLGFLGAAGSTMGAASLTLTVQANQ [Peptide 63]
anti-peptide antibody response (in words) (BALB/c mice): very low to negligible amounts of anti-peptide antibodies; also recorded: do not stimulate anti-peptide antibody production | T cell response directed against the corresponding peptide and native HIV envelope protein gp160 [1]: strong T cell response

SVITQACSKVSFE [Peptide 113]
anti-peptide antibody response (in words) (BALB/c mice): very low to negligible amounts of anti-peptide antibodies; also recorded: do not stimulate anti-peptide antibody production | T cell response directed against the corresponding peptide and native HIV envelope protein gp160 [1]: strong T cell response

LWDQSLKPCVKLT [Peptide 111, gp160 CR-1, residues 118-131]
anti-peptide antibody response (in words) (BALB/c mice): very low to negligible amounts of anti-peptide antibodies

GTGPCTNVSTVQC [Peptide 116, gp160 CR-2, residues 240-252]
anti-peptide antibody response (in words) (BALB/c mice): very low to negligible amounts of anti-peptide antibodies
